From patent US10710984B2, “N-[(Pyrimidinylamino)propanyl]-and N-[(Pyridinylamino)-propanyl]arylcarboxamides” (Boehringer Ingelheim International GmbH, priority 2016, dated 2020)

Tests used:
human Orexin 1 receptor = biological target: T1, human Orexin 1 receptor (Homo sapiens, UniProt O43613); experiment: Assay A: in vitro testing of OX1R potency, OX1R IP1; format: cell-based; settings: Table 4a; 50 nM Orexin A
T1 construct: CHO-K1 cells stably expressing the full-length human Orexin 1 receptor and the aequorin photoprotein; expressed in transfected cells; host or cells: CHO-K1 (CHO-K1/hOx1)
T1 sequence (O43613 1-425): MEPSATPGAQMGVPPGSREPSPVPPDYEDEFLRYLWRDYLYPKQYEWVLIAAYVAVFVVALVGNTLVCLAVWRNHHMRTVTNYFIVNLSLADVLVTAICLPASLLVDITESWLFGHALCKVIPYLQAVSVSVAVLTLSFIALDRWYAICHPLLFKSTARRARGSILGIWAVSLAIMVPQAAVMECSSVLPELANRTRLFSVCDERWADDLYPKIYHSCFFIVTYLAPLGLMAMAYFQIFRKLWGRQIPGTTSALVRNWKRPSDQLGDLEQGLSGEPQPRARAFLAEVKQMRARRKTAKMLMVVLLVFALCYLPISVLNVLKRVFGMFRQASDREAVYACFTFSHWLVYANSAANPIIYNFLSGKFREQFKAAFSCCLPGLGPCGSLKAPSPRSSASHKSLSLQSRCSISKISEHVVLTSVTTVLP

human orexin 2 receptor = biological target: T2, human orexin 2 receptor (Homo sapiens, UniProt O43614); experiment: Assay B: in vitro testing of OX2R potency, OX2R IP1; format: cell-based; settings: Table 4a; 0.5 nM Orexin A
T2 construct: CHO-K1 cells stably expressing the full-length human orexin 2 receptor and the aequorin photoprotein; expressed in transfected cells; host or cells: CHO-K1 (CHO-K1/hOx2)
T2 sequence (O43614 1-444): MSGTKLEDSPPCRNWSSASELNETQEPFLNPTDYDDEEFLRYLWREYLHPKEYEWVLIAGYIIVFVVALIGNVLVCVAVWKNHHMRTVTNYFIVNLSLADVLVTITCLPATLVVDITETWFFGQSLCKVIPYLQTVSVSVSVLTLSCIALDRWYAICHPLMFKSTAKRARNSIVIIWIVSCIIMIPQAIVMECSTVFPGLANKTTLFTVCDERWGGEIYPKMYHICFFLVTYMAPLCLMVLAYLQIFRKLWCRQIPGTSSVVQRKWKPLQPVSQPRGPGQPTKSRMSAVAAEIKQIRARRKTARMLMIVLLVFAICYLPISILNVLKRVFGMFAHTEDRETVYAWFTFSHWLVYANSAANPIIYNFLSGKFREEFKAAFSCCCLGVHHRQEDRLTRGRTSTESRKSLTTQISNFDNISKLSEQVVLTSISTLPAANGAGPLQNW
From the text: Activation of the orexin receptors expressed in cell lines results in an increase in intracellular IP3 concentration. IP1, a downstream metabolite of IP3, accumulates in cells following receptor activation and is stable in the presence of LiCl. Using Homogeneous Time-Resolved Fluorescence technology with Lumi4-Tb cryptate (commercially available from Cisbio Bioassay) and a suitable fluorescence plate reader. […] Chem. Genomics 2009, 3, 22-32. This technique is used to characterize pharmacological modification of the orexin receptors.
B. In Vitro Testing of OX2R Potency: OX2R IP1
IP1 measurements are performed in CHO-K1 cells stably expressing the full-length human orexin 2 receptor and the aequorin photoprotein. Cells are cultivated in Ham's nutrient mixture F12 medium with 10% fetal calf serum, in a 37° C., 95% humidity and 5% CO2 incubator. The CHO-K1/hOx2 cell mass is expanded to larger cell numbers. The cells are obtained as frozen cells in cryo-vials and stored until use at −150° C. The viability of the cells after thawing is >90%. In preparation for the assay, 24 hours before the assay, the cells are thawed at 37° C. and immediately diluted with cell culture medium. After centrifugation, the cell pellet is re-suspended in medium and then distributed into the assay plates with a density of 5000 cells/25 μL per well. The plates are incubated for one hour at room temperature to reduce edge effects before they are incubated for 24 hours at 37° C./5% CO2. Compounds are prepared by a 8-point serial dilution in DMSO and a final dilution step into assay buffer (HBSS with 20 mM HEPES, 0.1% BSA and 50 mM LiCl, pH 7.4) to ensure a final DMSO concentration of 1% in the assay. On the day of the assay, cells in the plate are washed twice with 60 μL assay buffer (20 μL buffer remained in the wells after washing), followed by adding 5 μL per well of compounds diluted in assay buffer. After 15 minutes of incubation at room temperature 5 μL per well of Orexin A peptide (final concentration: 0.5 nM) dissolved in assay buffer is added to the assay plate. The assay plate is incubated for 60 minutes at 37° C. Then 5 μL per well of Anti-IP1-Cryptate Tb solution and 5 μL per well of IP1-d2 dilution are added to all well of the plate and the plate is incubated for a further 60 minutes light protected at room temperature. The emission at 615 nm and 665 nm (Excitation wavelength: 320 nm) are measured using an EnVision reader (PerkinElmer). The ratio between the emission at 665 nm and 615 is calculated by the reader.
8-point four parametric non-linear curve fitting and determination of IC50 values and Hill slopes is performed using a regular analysis software e.g. AssayExplorer (Accelrys). In order to establish an agonist concentration independent parameter, Kb values are calculated using the following equation: IC50/((2+(A/EC50)^n)^1/n−1) (with A=concentration agonist, EC50=EC50 agonist, n=Hill slope agonist) (see P. Leff, I. G. Dougall, Trends Pharmacol. Sci. 1993, 14(4), 110-112).
Kb values from Assay A (OX1R) and Assay B (OX2R) can then provide a selectivity ratio which is independent of the agonist (Orexin A) concentration.

[1] = Assay D: assessment of log P; format: physicochemical
Experimental: The assay was performed following the description by S. F. Donovan and M. C. Pescatore in J. Chromatogr. A 952 (2002) 47-61.

human MDR1 P-gp = biological target: T3, human MDR1 P-gp (Homo sapiens, UniProt P08183); experiment: Assay C: efflux in MDCK cells transfected with the human MDR1 gene; format: in vitro ADME; settings: MDCK-MDR1 cell monolayers, pH 7.4, 37° C., read-out: MDCK efflux ratio (BA/AB)
T3 construct: expressed in transfected cells; host or cells: MDCK (MDCK-MDR1)
T3 sequence (P08183 whole entry): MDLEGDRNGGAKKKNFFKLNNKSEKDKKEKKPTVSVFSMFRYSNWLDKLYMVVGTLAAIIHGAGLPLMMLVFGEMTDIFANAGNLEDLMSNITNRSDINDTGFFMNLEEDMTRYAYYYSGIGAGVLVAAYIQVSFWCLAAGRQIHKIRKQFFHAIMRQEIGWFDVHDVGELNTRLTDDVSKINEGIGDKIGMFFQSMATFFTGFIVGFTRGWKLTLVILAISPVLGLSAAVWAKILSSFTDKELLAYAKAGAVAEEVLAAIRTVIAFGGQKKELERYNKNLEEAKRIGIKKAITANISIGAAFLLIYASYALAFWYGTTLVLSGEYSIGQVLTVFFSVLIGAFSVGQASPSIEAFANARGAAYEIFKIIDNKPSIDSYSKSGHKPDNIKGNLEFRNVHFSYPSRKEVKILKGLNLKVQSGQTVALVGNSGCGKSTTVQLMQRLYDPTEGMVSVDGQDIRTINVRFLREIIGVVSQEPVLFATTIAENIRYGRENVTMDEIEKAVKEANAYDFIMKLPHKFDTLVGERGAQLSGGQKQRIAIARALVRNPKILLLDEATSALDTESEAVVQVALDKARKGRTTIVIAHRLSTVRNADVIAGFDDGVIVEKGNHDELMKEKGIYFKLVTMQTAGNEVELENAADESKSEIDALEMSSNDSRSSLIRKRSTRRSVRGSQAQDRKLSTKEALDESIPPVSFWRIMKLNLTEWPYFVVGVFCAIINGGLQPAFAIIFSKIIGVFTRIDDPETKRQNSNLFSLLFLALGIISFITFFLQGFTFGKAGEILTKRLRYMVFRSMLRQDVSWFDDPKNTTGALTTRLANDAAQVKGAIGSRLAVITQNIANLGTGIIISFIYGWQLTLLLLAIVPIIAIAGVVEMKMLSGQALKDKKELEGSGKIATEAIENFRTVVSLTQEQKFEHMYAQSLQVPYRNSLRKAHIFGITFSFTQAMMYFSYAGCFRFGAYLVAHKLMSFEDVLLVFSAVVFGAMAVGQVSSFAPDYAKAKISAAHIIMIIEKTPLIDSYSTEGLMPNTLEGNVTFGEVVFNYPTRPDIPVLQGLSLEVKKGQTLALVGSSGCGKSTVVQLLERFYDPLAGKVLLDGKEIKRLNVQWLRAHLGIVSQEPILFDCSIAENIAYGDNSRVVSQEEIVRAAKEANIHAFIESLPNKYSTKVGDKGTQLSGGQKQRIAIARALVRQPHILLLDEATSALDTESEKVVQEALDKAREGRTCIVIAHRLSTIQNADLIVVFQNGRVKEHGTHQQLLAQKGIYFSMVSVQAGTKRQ
Experimental: C. Assessment of Efflux in Madin-Darby Canine Kidney (MDCK) Cells Transfected with the Human MDR1 Gene
Apparent permeability coefficients (PE) of the compounds across the MDCK-MDR1 cell monolayers are measured (pH 7.4, 37° C.) in apical-to-basal (AB) and basal-to-apical (BA) transport direction. AB permeability (PEAB) represents drug absorption from the blood into the brain and BA permeability (PEBA) drug efflux from the brain back into the blood via both passive permeability as well as active transport mechanisms mediated by efflux and uptake transporters that are expressed on the MDCK-MDR1 cells, predominantly by the overexpressed human MDR1 P-gp. The compounds are assigned to permeability/absorption classes by comparison of the AB permeabilities with the AB permeabilities of reference compounds with known in vitro permeability and oral absorption in the human. Identical or similar permeabilities in both transport directions indicate passive permeation, vectorial permeability points to additional active transport mechanisms. Higher PEBA than PEAB indicates the involvement of active efflux mediated by MDR1 P-gp. Active transport is concentration-dependently saturable.
MDCK-MDR1 cells (1-2×10e5 cells/1 cm2 area) are seeded on filter inserts (Costar transwell polycarbonate or PET filters, 0.4 μm pore size) and cultured (DMEM) for 7 days. Subsequently, the MDR1 expression is boosted by culturing the cells with 5 mM sodium butyrate in full medium for 2 days. Compounds are dissolved in appropriate solvent (like DMSO, 1-20 mM stock solutions). Stock solutions are diluted with HTP-4 buffer (128.13 mM NaCl, 5.36 mM KCl, 1 mM MgSO4, 1.8 mM CaCl2, 4.17 mM NaHCO3, 1.19 mM Na2HPO4×7H2O, 0.41 mM NaH2PO4—H2O, 15 mM HEPES, 20 mM glucose, 0.25% BSA, pH 7.4) to prepare the transport solutions (0.1-300 μM compound, final DMSO<=0.5%). The transport solution (TL) is applied to the apical or basolateral donor side for measuring A-B or B-A permeability (3 filter replicates), respectively. The receiver side contains the same buffer as the donor side. Samples are collected at the start and end of experiment from the donor and at various time intervals for up to 2 hours also from the receiver side for concentration measurement by H PLC-MS/MS or scintillation counting. Sampled receiver volumes are replaced with fresh receiver solution.

OX2R = biological target: T4, OX2R (Homo sapiens, UniProt O43614); experiment: OX2R assay of WO2016/034882, Table 3 (Method B); settings: read-out: OX2R IC50 (corresponds to pIC50) (converted)
T4 sequence (O43614 1-444): T2 sequence (O43614 1-444)

OX1R = biological target: T5, OX1R (Homo sapiens, UniProt O43613); experiment: OX1R assay of WO2016/034882, Table 3 (Method B); settings: read-out: OX1R IC50 (corresponds to pIC50) (converted)
T5 sequence (O43613 1-425): T1 sequence (O43613 1-425)

CCN(C(=O)c1cccc(F)c1-n1nccn1)[C@@H](C)CNc1ncc(C(F)(F)F)cc1F [Example 16]
Kb (human Orexin 1 receptor): 0.014 nM
Kb (human orexin 2 receptor): 7.6 nM
chromatographic logP [1]: 2 to 4
efflux ratio (human MDR1 P-gp): < 3

CCN(C(=O)c1nccc(C(F)(F)F)c1-c1ccn(C)n1)[C@@H](C)COc1ccc(C(F)(F)F)cn1 [Example 19]
Kb (human Orexin 1 receptor): 0.114 nM
Kb (human orexin 2 receptor): 26.2 nM
chromatographic logP [1]: 2 to 4
efflux ratio (human MDR1 P-gp): < 3

CCN(C(=O)c1ccc(OC)cc1-n1nccn1)[C@@H](C)CNc1ncc(C(F)(F)F)cn1 [Example 20]
Kb (human Orexin 1 receptor): 0.091 nM
Kb (human orexin 2 receptor): 115 nM
chromatographic logP [1]: 2 to 4
efflux ratio (human MDR1 P-gp): < 3

CC[C@@H](CNc1ccc(C(F)(F)F)cn1)N(CC)C(=O)c1nc(C)ccc1-n1nccn1 [drawing 9]
IC50 (OX2R): 320 nM

CC[C@@H](CNc1ncc(C(F)(F)F)cn1)N(C)C(=O)c1nc(C)ccc1-c1ncccn1 [drawing 11]
IC50 (OX1R): 1.9 nM

CC[C@@H](CNc1ncc(C(F)(F)F)cn1)N(C)C(=O)c1c(F)cccc1-n1nccn1 [drawing 12]
IC50 (OX2R): ≥ 7950 nM
